Our source for the mutagenic call and call values is PubChem BioAssay AID1259408 (Genetic Toxicology Data Bank (GENE-TOX), 2018).

The structures appear in SMILES notation. The source made the active and inactive calls. How the calls were made is not given here.

The test system of this data set is GENE-TOX genotoxicity assays, various organisms and cells. Put plainly: GENE-TOX mutagenicity studies. Particulars: for call: Assay Type: In vivo carcinogenicity studies, Assay Code: CCG+.
[1] abbreviates: Species/Cell Type: Salmonella typhimurium (one or more of the five standard strains: TA98, TA100, TA1535, TA1537, and TA1538), Assay Type: Histidine reverse gene mutation, Ames assay, Assay Code: SAL+, Evaluation Type: Evaluation A (Pre-1980).
The mark [2] stands for this setting: Species/Cell Type: Chinese hamster ovary (CHO) cells, Assay Type: Forward gene mutation at the HPRT locus, Assay Code: CHO+, Evaluation Type: Evaluation B (Post-1980).
The mark [3] stands for this setting: Species/Cell Type: Salmonella typhimurium (one or more of the five standard strains: TA98, TA100, TA1535, TA1537, and TA1538), Assay Type: Histidine reverse gene mutation, Ames assay, Assay Code: SAL+*, Activation: With metabolic activation, Evaluation Type: Evaluation A (Pre-1980).
Where [4] appears, read: Species/Cell Type: Bacillus subtilis (H17 vs M45), Assay Type: Rec-assay, spot test, DNA effects (bacterial DNA repair), Assay Code: REWT, Evaluation Type: Evaluation A (Pre-1980).
Where [5] appears, read: Species/Cell Type: Drosophila melanogaster, Assay Type: Sex-linked recessive lethal gene mutation, Assay Code: SRL-, Evaluation Type: Evaluation A (Pre-1980).
Where [6] appears, read: Species/Cell Type: Escherichia coli polA (W3119 vs P3478), Assay Type: Rec-assay, DNA effects (bacterial DNA repair), Assay Code: RE1T, Evaluation Type: Evaluation A (Pre-1980).
[7] abbreviates: Species/Cell Type: Saccharomyces cerevisiae, Assay Type: Mitotic recombination or gene conversion, Assay Code: YEH-, Evaluation Type: Evaluation A (Pre-1980).
The mark [8] stands for this setting: Species/Cell Type: Salmonella typhimurium (one or more of the five standard strains: TA98, TA100, TA1535, TA1537, and TA1538), Assay Type: Histidine reverse gene mutation, Ames assay, Assay Code: SALT, Evaluation Type: Evaluation A (Pre-1980).
[9] abbreviates: Species/Cell Type: Mammalian polychromatic erythrocytes, Assay Type: Micronucleus test, chromosome aberrations, Assay Code: MNTT, Evaluation Type: Evaluation A (Pre-1980).
Setting [10] is: Species/Cell Type: Mouse, Sex: Male, Assay Type: Sperm morphology, Assay Code: SPI-, Evaluation Type: Evaluation A (Pre-1980).
The mark [11] stands for this setting: Species/Cell Type: Nonhuman, Evaluation Type: Evaluation A (Pre-1980).

As to `CNC(=O)N(C)N=O`, the mutagenic call is “active; positive” (Species/Cell Type: Arabidopsis species, Assay Type: Gene mutation, Assay Code: ARM+, Evaluation Type: Evaluation A (Pre-1980)); “active; positive” under setting [1]; “active; positive” (Species/Cell Type: Zea mays (corn), Assay Type: Gene mutation, Assay Code: ZEM+D, Dose Response: With dose response, Evaluation Type: Evaluation A (Pre-1980)).

Turning to `C[C@H](CCC(=O)O)[C@H]1CC[C@H]2[C@@H]3CC[C@@H]4C[C@H](OS(=O)(=O)O)CC[C@]4(C)[C@H]3CC[C@]12C`, the mutagenic call (Species/Cell Type: Syrian hamster embryo (SHE) cells, Assay Type: Cell transformation, clonal assay, Assay Code: CTC-, Evaluation Type: Evaluation A (Pre-1980)) is “inactive; negative”.

In the case of `CC(C)CCC[C@@H](C)[C@H]1CC[C@H]2[C@@H]3C[C@@H]4O[C@@]45C[C@@H](O)CC[C@]5(C)[C@H]3CC[C@]12C`, the mutagenic call (Species/Cell Type: Syrian hamster embryo (SHE) cells, Assay Type: Cell transformation, clonal assay, Assay Code: CTC+, Evaluation Type: Evaluation A (Pre-1980)) is “active; positive”.

For `Cc1c2cc[n+](C)cc2c(C)c2c1[nH]c1ccc(O)cc12`, the mutagenic call under setting [2] was “active; positive”.

In the case of `CC(C)(c1ccc(OCC2CO2)cc1)c1ccc(OCC2CO2)cc1` (stereo unspecified), under setting [3], the mutagenic call was “active; positive”.

For the compound `CNC(=O)O/N=C(\C)SC`, the mutagenic call is “no conclusion” under setting [4]; “inactive; negative” under setting [5]; “inactive; negative” (Species/Cell Type: Escherichia coli WP2 UVRA, Assay Type: Tryptophan reverse gene mutation, Assay Code: WPU-*, Activation: With metabolic activation, Evaluation Type: Evaluation A (Pre-1980)); “no conclusion” under setting [6]; “inactive; negative” (Species/Cell Type: Human diploid fibroblasts, Assay Type: Unscheduled DNA synthesis (UDS) in vitro, DNA effects, Assay Code: UDH-, Evaluation Type: Evaluation A (Pre-1980)); “inactive; negative” under setting [7]. Moreover, the mutagenic call under setting [8] is given as “no conclusion”.

On to `Nc1ncnc2c1ccn2[C@@H]1O[C@H](CO)[C@@H](O)[C@H]1O`, for which, for the setting “Species/Cell Type: Fischer rat embryo (RLV/1706) cells, Assay Type: Cell transformation, viral enhanced, Assay Code: CTR-, Evaluation Type: Evaluation A (Pre-1980)”, the mutagenic call was “inactive; negative”.

For `CC(=O)Oc1c(Cl)c(Cl)c(Cl)c(Cl)c1Cl`, under setting [4], the mutagenic call is given as “no conclusion”.

Regarding `O=C1CCO1`, the mutagenic call (Species/Cell Type: Allium cepa, Assay Type: Chromosome aberrations, Assay Code: ALC+, Evaluation Type: Evaluation A (Pre-1980)) is “active; positive”; the mutagenic call under setting [2] was “active; positive”; the mutagenic call (Species/Cell Type: Drosophila melanogaster, Assay Type: Sex-linked recessive lethal gene mutation, Assay Code: SRL+, Evaluation Type: Evaluation A (Pre-1980)) was “active; positive”; the mutagenic call (Species/Cell Type: Drosophila melanogaster, Sex: Male, Assay Type: Heritable translocation test, chromosome aberrations, Assay Code: DHT+, Evaluation Type: Evaluation A (Pre-1980)) is “active; positive”; the mutagenic call (Species/Cell Type: Escherichia coli polA (W3119 vs P3478), Assay Type: Rec-assay, DNA effects (bacterial DNA repair), Assay Code: RE1+, Evaluation Type: Evaluation A (Pre-1980)) was “active; positive”; the mutagenic call (Species/Cell Type: Human diploid fibroblasts, Assay Type: Unscheduled DNA synthesis (UDS) in vitro, DNA effects, Assay Code: UDH+, Evaluation Type: Evaluation A (Pre-1980)) was “active; positive”. In addition, the mutagenic call was “no conclusion” under setting [9]; “active; positive” (Species/Cell Type: Mouse lymphoma (L5178Y) cells, Assay Type: Forward gene mutation at the thymidine kinase (TK) locus, chromosome aberrations, Assay Code: L51+, Evaluation Type: Evaluation A (Pre-1980)); “inactive; negative” under setting [10]; “active; positive” (Species/Cell Type: Neurospora crassa, Assay Type: Forward gene mutation, Assay Code: NEF+, Evaluation Type: Evaluation A (Pre-1980)); “active; positive” (Species/Cell Type: Neurospora crassa, Assay Type: Reverse gene mutation, Assay Code: NER+, Evaluation Type: Evaluation A (Pre-1980)); “active; positive” (Species/Cell Type: Nonhuman, Assay Type: Sister-chromatid exchange (SCE) in vitro, Assay Code: SC2+D, Dose Response: With dose response, Evaluation Type: Evaluation A (Pre-1980)). Further, the mutagenic call was “active; positive” (Species/Cell Type: Saccharomyces cerevisiae, Assay Type: Mitotic recombination or gene conversion, Assay Code: YEC+, Evaluation Type: Evaluation A (Pre-1980)); “active; positive” (Species/Cell Type: Saccharomyces cerevisiae, Assay Type: Mitotic recombination or gene conversion, Assay Code: YEH+, Evaluation Type: Evaluation A (Pre-1980)); “active; positive” (Species/Cell Type: Saccharomyces cerevisiae, Assay Type: Reverse gene mutation, Assay Code: YER+, Evaluation Type: Evaluation A (Pre-1980)); “active; positive” under setting [1]; “active; positive” (Species/Cell Type: Salmonella typhimurium, Assay Type: Forward and reverse gene mutation, host-mediated assay, Assay Code: HMA+, Evaluation Type: Evaluation A (Pre-1980)); “active; positive” (Species/Cell Type: Syrian hamster embryo (SA7/SHE) cells, Assay Type: Cell transformation, viral enhanced, Assay Code: CT7+, Evaluation Type: Evaluation A (Pre-1980)). Besides, the mutagenic call by setting is: (Species/Cell Type: Syrian hamster embryo (SHE) cells, Assay Type: Cell transformation, focus assay, Assay Code: CTF+, Evaluation Type: Evaluation A (Pre-1980)) “active; positive”; (Species/Cell Type: Vicia faba, Assay Type: Chromosome aberrations, Assay Code: VIC+, Evaluation Type: Evaluation A (Pre-1980)) “active; positive”. Under setting [11], the call was “active; positive”.

In the case of `CC1=C[C@H]2[C@@]3(O)[C@H](C)[C@@H](O)[C@]4(O)[C@H]([C@@H]3C=C(CO)C[C@]2(O)C1=O)C4(C)C`, the mutagenic call runs as follows: under setting [6], “no conclusion”; under setting [7], “inactive; negative”.

Take `CNC(=O)Oc1cccc(C)c1`: the mutagenic call (Species/Cell Type: Bacillus subtilis (H17 vs M45T), Assay Type: Rec-assay, spot test, DNA effects (bacterial DNA repair), Assay Code: REX-, Evaluation Type: Evaluation A (Pre-1980)) was “inactive; negative” and the mutagenic call (Species/Cell Type: Escherichia coli WP2, Assay Type: Tryptophan reverse gene mutation, Assay Code: WP2-, Evaluation Type: Evaluation A (Pre-1980)) is “inactive; negative”.

On to `Clc1ccc(C(c2ccc(Cl)cc2)C(Cl)(Cl)Cl)cc1`, for which the mutagenic call reads like this: (Species/Cell Type: Chinese hamster lung (V79) cells, Assay Type: Forward gene mutation at the HPRT or ouabain locus, Assay Code: V79+, Evaluation Type: Evaluation A (Pre-1980)) “active; positive”; (Species/Cell Type: Drosophila melanogaster, Assay Type: Aneuploidy, partial sex chromosome loss, chromosome aberrations, Assay Code: DAP+M, Evaluation Type: Evaluation A (Pre-1980)) “active; positive”; (Species/Cell Type: Drosophila melanogaster, Assay Type: Aneuploidy, sex chromosome gain, chromosome aberrations, Assay Code: DAGT, Evaluation Type: Evaluation A (Pre-1980)) “no conclusion”; (Species/Cell Type: Drosophila melanogaster, Assay Type: Aneuploidy, whole sex chromosome loss, chromosome aberrations, Assay Code: DACT, Evaluation Type: Evaluation A (Pre-1980)) “no conclusion”; under setting [5], “inactive; negative”; under setting [6], “no conclusion”. For the same compound, the mutagenic call was “no conclusion” under setting [9]; “inactive; negative” under setting [10]; “active; positive” (Species/Cell Type: Nonhuman, Assay Type: Chromosome aberrations in vitro, Assay Code: CY&+, Evaluation Type: Evaluation A (Pre-1980)); “no conclusion” (Species/Cell Type: Rodents, Sex: Male, Assay Type: Dominant lethal test, Assay Code: DLTT, Evaluation Type: Evaluation A (Pre-1980)); “inactive; negative” (Species/Cell Type: Saccharomyces cerevisiae, Assay Type: Mitotic recombination or gene conversion, Assay Code: YEH-*, Activation: With metabolic activation, Evaluation Type: Evaluation A (Pre-1980)); “inactive; negative” (Species/Cell Type: Salmonella typhimurium (one or more of the five standard strains: TA98, TA100, TA1535, TA1537, and TA1538), Assay Type: Histidine reverse gene mutation, Ames assay, Assay Code: SAL-, Evaluation Type: Evaluation A (Pre-1980)). For the same compound, the mutagenic call (Species/Cell Type: Salmonella typhimurium, Serratia marcesens, Assay Type: Forward and reverse gene mutation, host-mediated assay, Assay Code: HM2-, Evaluation Type: Evaluation A (Pre-1980)) is “inactive; negative”. For the same compound, under setting [11], the call is “active; positive”.

For `Nc1c(F)cc(-c2cc(F)c(N)c(F)c2)cc1F`, the mutagenic call is “active; positive” (Species/Cell Type: Human diploid fibroblasts, Assay Type: Unscheduled DNA synthesis (UDS) in vitro, DNA effects, Assay Code: UDH+*, Activation: With metabolic activation, Evaluation Type: Evaluation A (Pre-1980)) and “active; positive” under setting [3].

For `O=C(O)[C@H]1O[C@@H](N(O)c2ccc(-c3ccccc3)cc2)[C@H](O)[C@@H](O)[C@@H]1O`, the mutagenic call under setting [1] is “active; positive”.

For `C1=Cc2c(ccc3c2ccc2ccccc23)C1`, the mutagenic call under setting [3] is “active; positive”.

Regarding `O[C@@H]1C=Cc2cc3ccc4ccccc4c3cc2[C@H]1O`, the mutagenic call runs as follows: (Species/Cell Type: Nonhuman, Assay Type: Sister-chromatid exchange (SCE) in vitro, Assay Code: SC2+D, Dose Response: With dose response, Evaluation Type: Evaluation B (Post-1980)) “active; positive”; under setting [8], “no conclusion”.
